Results as given in patent US8211901B2, “Naphthamide derivatives as multi-target protein kinase inhibitors and histone deacetylase inhibitors” (Shenzhen Chipscreen Biosciences Ltd., priority 2009, dated 2012).

Assays:
Assay type in all cases: in vivo, nu/nu mice
[1] = Body weight in SSMC7721 xenograft study (Example 53)
Description: (§1) The antitumor activity of compound 31 was measured in human SSMC7721 liver cancer xenograft model. The female nu/nu mice of 18˜20 g were fed by normal diet for 3 days. Then the cultured SSMC7721 human liver cancer cells were implanted into the armpit of 50 mice. […] One group was treated with vehicle. One group was treated with sutent, the positive control drug. […] Each group was dosed orally once a day for 30 days. Tumor volumes as established by caliper measurements were recorded twice per week, along with body weights. At the end of study, the mice were killed, and tumors were weighed. The tumor growth inhibition of each group was calculated using the formula {[(the average tumor weight of vehicle group)−(the average tumor weight of drug group)]/(the average tumor weight of vehicle group)}×100%.

[2] = tested on: human SSMC7721 liver cancer xenograft; test: Antitumor activity of compound 31, SSMC7721 xenograft (Example 53)
Description: as §1

[3] = Body weight in HCT-8 xenograft study (Example 52)
Description: The antitumor activity of compound 31 was measured in human HCT-8 colon cancer xenograft model. The female nu/nu mice of 18˜20 g were fed by normal diet for 3 days. Then the cultured HCT-8 human colon cancer cells were implanted into the armpit of 50 mice. When tumors had reached approximately 100 mm^3, the mice were divided into 6 groups randomly. Each group has 8 mice. One group was treated with vehicle. One group was treated with sutent, the positive control drug. […] Each group was dosed orally once a day for 20 days. Tumor volumes as established by caliper measurements were recorded twice per week, along with body weights. At the end of study, the mice were killed, and tumors were weighed. The tumor growth inhibition of each group was calculated using the formula {[(the average tumor weight of vehicle group)−(the average tumor weight of drug group)]/(the average tumor weight of vehicle group)}×100%.

[4] = Body weight in HCT-8 xenograft study (Example 54)
Description: (§2) The antitumor activity of compound 33 and compound 34 were measured in human HCT-8 colon cancer xenograft model. The female nu/nu mice of 18˜20 g were fed by normal diet for 3 days. Then the cultured HCT-8 human colon cancer cells were implanted into the armpit of 50 mice. When tumors had reached approximately 100 mm^3, the mice were divided into 6 groups randomly. Each group has 8 mice. One group was treated with vehicle. One group was treated with sutent, the positive control drug. Two groups were treated with compound 33. The other two groups were treated with compound 34. Each group was dosed orally once a day for 20 days. Tumor volumes as established by caliper measurements were recorded twice per week, along with body weights. At the end of study, the mice were killed, and tumors were weighed. The tumor growth inhibition of each group was calculated using the formula {[(the average tumor weight of vehicle group)−(the average tumor weight of drug group)]/(the average tumor weight of vehicle group)}×100%.

[5] = Body weight in HCT-8 xenograft study (Example 55)
Description: as §2, with “37” for “34”, “When tumors had reached approximately 100 mm^3, the mice were divided into 6 groups randomly. Each group has 8 mice.” left out, “37. Compound 33 was administered twice a day with an interval of 6 hours. Other drugs and vehicle were administered once a day.” for “34.”, “orally” for “orally once a day”

[6] = Body weight in SSMC7721 xenograft study (Example 56)
Description: The antitumor activity of compound 33 and compound 37 were measured in human SSMC7721 liver cancer xenograft model. The female nu/nu mice of 18˜20 g were fed by normal diet for 3 days. Then the cultured SSMC7721 human liver cancer cells were implanted into the armpit of 50 mice. […] Each group has 8 mice. One group was treated with vehicle. One group was treated with sutent, the positive control drug. Two groups were treated with compound 33. The other two groups were treated with compound 37. Each group was dosed orally once a day for 30 days. Tumor volumes as established by caliper measurements were recorded twice per week, along with body weights. At the end of study, the mice were killed, and tumors were weighed. The tumor growth inhibition of each group was calculated using the formula {[(the average tumor weight of vehicle group)−(the average tumor weight of drug group)]/(the average tumor weight of vehicle group)}×100%.

[7] = 2.5 mg/kg orally once a day for 30 days
[8] = 5 mg/kg orally once a day for 30 days
[9] = 10 mg/kg orally once a day for 30 days
[10] = 20 mg/kg orally once a day for 30 days
[11] = 2.5 mg/kg orally once a day for 20 days
[12] = 5 mg/kg orally once a day for 20 days
[13] = 10 mg/kg orally once a day for 20 days
[14] = 20 mg/kg orally once a day for 20 days
[15] = 30 mg/kg orally once a day for 20 days
[16] = 60 mg/kg orally once a day for 20 days
[17] = 30 × 2 mg/kg orally twice a day with an interval of 6 hours for 20 days
[18] = 60 × 2 mg/kg orally twice a day with an interval of 6 hours for 20 days
[19] = 30 mg/kg orally once a day for 30 days
[20] = 60 mg/kg orally once a day for 30 days

## COc1ccc2c(Oc3ccc4c(C(=O)Nc5ccccc5N)cccc4c3)ccnc2c1 [Example 31, N-(2-aminophenyl)-6-(7-methoxyquinolin-4-yloxy)-1-naphthamide]
[1]; [7]
  Body weight (g) end: 23.2 ± 2.1 g
  Body weight (g) start: 20.1 ± 0.9 g
[1]; [8]
  Body weight (g) end: 24.8 ± 1.5 g
  Body weight (g) start: 20.8 ± 1.2 g
[1]; [9]
  Body weight (g) end: 23.6 ± 1.5 g
  Body weight (g) start: 20.4 ± 1.6 g
[1]; [10]
  Body weight (g) end: 21.0 ± 2.2 g
  Body weight (g) start: 20.2 ± 1.7 g
[2]; [7]
  TGI (%) Tumor growth inhibition: 51.7%
  Tumor weight: 1.63 ± 0.70 g
[2]; [8]
  TGI (%) Tumor growth inhibition: 65.4%
  Tumor weight: 1.16 ± 0.55 g
[2]; [9]
  TGI (%) Tumor growth inhibition: 79.2%
  Tumor weight: 0.70 ± 0.45 g
[2]; [10]
  TGI (%) Tumor growth inhibition: 84.4%
  Tumor weight: 0.53 ± 0.28 g
[3]; [11]
  Body weight (g) end: 24.5 ± 1.1 g
  Body weight (g) start: 20.3 ± 0.8 g
[3]; [12]
  Body weight (g) end: 24.8 ± 1.5 g
  Body weight (g) start: 21.6 ± 1.4 g
[3]; [13]
  Body weight (g) end: 23.7 ± 0.8 g
  Body weight (g) start: 20.7 ± 1.1 g
[3]; [14]
  Body weight (g) end: 22.5 ± 1.6 g
  Body weight (g) start: 20.5 ± 1.3 g

## COc1ccc2c(Oc3ccc4c(C(=O)NCc5ccc(C(=O)Nc6ccccc6N)cc5)cccc4c3)ccnc2c1 [Example 33, N-(4-((2-aminophenyl)carbamoyl)benzyl)-6-(7-methoxyquinolin-4-yloxy)-1-naphthamide]
[4]; [15]
  Body weight (g) end: 21.1 ± 2.2 g
  Body weight (g) start: 19.0 ± 1.3 g
[4]; [16]
  Body weight (g) end: 21.4 ± 1.5 g
  Body weight (g) start: 19.4 ± 0.8 g
[5]; [17]
  Body weight (g) end: 22.6 ± 1.6 g
  Body weight (g) start: 21.1 ± 1.2 g
[5]; [18]
  Body weight (g) end: 19.0 ± 1.8 g
  Body weight (g) start: 20.1 ± 0.9 g
[6]; [19]
  Body weight (g) end: 24.0 ± 1.7 g
  Body weight (g) start: 20.8 ± 0.5 g
[6]; [20]
  Body weight (g) end: 25.4 ± 2.8 g
  Body weight (g) start: 21.4 ± 1.3 g
